# In PubChem BioAssay (NCI):
#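 Test compounds were applied to cells in 96-well plates for 48 hours at 5 doses. GI50 is the concentration that inhibits growth by half. At the TGI there is no net growth.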
# Assays:
# Experiment in all cases: inhibition of tumour cell growth, NCI panel, 48 h
# SK-MEL-5 melanoma = system: SK-MEL-5 melanoma
# SK-MEL-28 melanoma = system: SK-MEL-28 melanoma
# U251 CNS = system: U251 CNS
# SF-295 CNS = system: SF-295 CNS
# HL-60(TB) leukemia = system: HL-60(TB) leukemia
# HCT-116 colon = system: HCT-116 colon
# NCI-H460 lung = system: NCI-H460 lung
# SK-OV-3 ovarian = system: SK-OV-3 ovarian
# HOP-92 NSCLC = system: HOP-92 NSCLC
# RXF 393 renal = system: RXF 393 renal
SMILES,TGI (SK-MEL-5 melanoma),TGI (SK-MEL-28 melanoma),TGI (U251 CNS),TGI (SF-295 CNS),TGI (HL-60(TB) leukemia),TGI (HCT-116 colon),TGI (NCI-H460 lung),TGI (SK-OV-3 ovarian),GI50 (SK-MEL-5 melanoma),GI50 (SK-MEL-28 melanoma),GI50 (U251 CNS),GI50 (SF-295 CNS),GI50 (HOP-92 NSCLC),TGI (HOP-92 NSCLC),GI50 (RXF 393 renal),TGI (RXF 393 renal),GI50 (HL-60(TB) leukemia),GI50 (HCT-116 colon),GI50 (SK-OV-3 ovarian),GI50 (NCI-H460 lung)
CNC1C(O)C(OC2C(N)CC(N)C(OC3OC(C(C)O)C(O)C(O)C3N)C2O)OCC1(C)O (stereo not drawn),> 100 µM,> 100 µM,> 100 µM,> 100 µM,> 100 µM,> 100 µM,> 100 µM,> 100 µM,–,–,–,–,–,–,–,–,–,–,–,–
CC(=O)OCC1O[C@@H]([S-])C(OC(C)=O)[C@H](OC(C)=O)[C@@H]1OC(C)=O.[Au+].c1ccc(CN2[CH-]N(Cc3ccccc3)C(c3ccccc3)=C2c2ccccc2)cc1,3.28 µM,3.21 µM,3.09 µM,6.31 µM,6.12 µM,3.24 µM,–,10.2 µM,1790 nM,1.64 µM,1610 nM,2340 nM,1740 nM,3.38 µM,1630 nM,3.51 µM,2240 nM,1640 nM,3.39 µM,–
Cc1cc(C)nc(SC2=C(Nc3cccc(Cl)c3C)C(=O)N(Cc3ccccc3)C2=O)n1,> 160 µM,> 160 µM,> 160 µM,> 160 µM,> 160 µM,> 160 µM,> 160 µM,> 160 µM,> 160000 nM,> 160 µM,> 160000 nM,> 160000 nM,> 160000 nM,> 160 µM,–,–,> 160000 nM,> 160000 nM,> 160 µM,> 160 µM
CC1=C(c2cc(C(=O)Nc3cccc(C(F)(F)F)c3)ncn2)Sc2ccccc2N1,> 100 µM,> 100 µM,> 100 µM,> 100 µM,> 100 µM,> 100 µM,> 100 µM,> 100 µM,–,–,–,–,–,> 100 µM,–,–,–,–,–,–
Cc1nc(Nc2ccc([N+](=O)[O-])cc2)sc1C(/C=C/c1ccc(N(C)C)cc1)=N/NC(=O)c1ccccc1,–,> 100 µM,> 100 µM,> 100 µM,> 100 µM,> 100 µM,> 100 µM,> 100 µM,–,–,–,–,–,52.7 µM,–,> 100 µM,–,–,–,–
Cc1nc2n(c(=O)c1CCN1CCC(c3noc4cc(F)ccc34)CC1)CCCC2,–,> 50 µM,> 50 µM,> 50 µM,> 50 µM,> 50 µM,> 50 µM,> 50 µM,–,> 50 µM,> 50000 nM,> 50000 nM,> 50000 nM,> 50 µM,> 50000 nM,> 50 µM,> 50000 nM,> 50000 nM,> 50 µM,> 50 µM
COc1ccc(C(=O)c2cc3c(N)c(C(=O)Nc4cccc(Cl)c4C)sc3nc2C)cc1,2.45 µM,> 25 µM,> 25 µM,> 25 µM,0.226 µM,> 25 µM,> 25 µM,> 25 µM,109 nM,> 25 µM,104 nM,83.3 nM,292 nM,6.67 µM,–,–,75.9 nM,98.9 nM,0.161 µM,0.0917 µM
